Source: US9414597B2, “Pesticidal mixtures including spiroheterocyclic pyrrolidine diones” (Syngenta Participations AG, priority 2011, dated 2016)
Where “and” joins values, the source holds several entries; their conditions need not be identical. Equal entries are not always repeated.

Columns and labels:
[1] = tested on: Myzus persicae (Green Peach Aphid); assay: Myzus persicae feeding/residual contact activity, preventive (sunflower leaf discs); type: in vivo
Description: (§1) The action to be expected E for a given active ingredient combination obeys the so-called COLBY formula and can be calculated as follows (COLBY, S. R. “Calculating synergistic and antagonistic responses of herbicide combination”. Weeds, Vol. 15, pages 20-22; 1967): • ppm=milligrams of active ingredient(=a.i.) per liter of spray mixture • X=% action by active ingredient A) using p ppm of active ingredient • Y=% action by active ingredient B) using q ppm of active ingredient.
(§2) According to COLBY, the expected (additive) action of active ingredients A)+B) using p+q ppm of active ingredient is
(§3) If the action actually observed (O) is greater than the expected action (E), then the action of the combination is super-additive, i.e. there is a synergistic effect. In mathematical terms the synergism factor SF corresponds to O/E. In the agricultural practice an SF of ≧1.2 indicates significant improvement over the purely complementary addition of activities (expected activity), while an SF of ≦0.9 in the practical application routine signals a loss of activity compared to the expected activity.
Myzus persicae (Green Peach Aphid):
feeding/residual contact activity, preventive
Sunflower leaf discs are placed on agar in a 24-well microtiter plate and sprayed with the DMSO test solutions. After drying, the leaf discs are infested with an aphid population of mixed ages. […] (1 PPM=1 mg l^−1)

[2] = tested on: Tetranychus urticae (Two-Spotted Spider Mite); assay: Tetranychus urticae feeding/contact activity, preventive (bean leaf discs); type: in vivo
Description: as §1, §2, §3
Tetranychus urticae (Two-Spotted Spider Mite):
feeding/contact activity, preventive
Bean leaf discs on agar in 24-well microtiter plates are sprayed with the DMSO test solutions. After drying, the leaf discs are infested with mite populations of mixed ages. […] (1 PPM=1 mg l^−1)

[3] = single active, 3.125 PPM AI, after 5 days
[4] = single active, 6.25 PPM AI, after 5 days
[5] = single active, 12.5 PPM AI, after 5 days
[6] = single active, 100 PPM AI, after 5 days
[7] = single active, 200 PPM AI, after 5 days
[8] = single active, 400 PPM AI, after 5 days
[9] = single active, 800 PPM AI, after 5 days
[10] = single active, 50 PPM AI, after 5 days

CC1(C)[C@H](C(=O)O[C@H](C#N)c2cccc(Oc3ccccc3)c2)[C@@H]1/C=C(\Cl)C(F)(F)F (racemic) [Lambda cyhalothrin, lambda-cyhalothrin]
AVERAGE DEAD IN % AFTER 5 DAYS ([1]; Lambda Cyhalothrin alone, PPM AI r7-r10:50 r11-r14:25): 57%
AVERAGE DEAD IN % AFTER 5 DAYS [2, 3]: 15%

CNC(=O)c1cc(Cl)cc(C)c1NC(=O)c1cc(Br)nn1-c1ncccc1Cl [Chlorantraniliprol]
AVERAGE DEAD IN % AFTER 5 DAYS ([2]; Chlorantraniliprol alone, PPM AI r6:200 r7:400 r8:800): 25% and 37%

CNC(=O)c1cc(Cl)cc(C)c1NC(=O)c1cc(Br)nn1-c1ncccc1Cl [Chlorantraniliprole, chlorantraniliprole]
AVERAGE DEAD IN % AFTER 5 DAYS ([1]; Chlorantraniliprole alone, 50 PPM AI): 0%
AVERAGE DEAD IN % AFTER 5 DAYS ([1]; Table 45, Chlorantraniliprole alone, 50 PPM AI): 0%
AVERAGE DEAD IN % AFTER 5 DAYS ([2]; Chlorantraniliprole alone, 200 PPM AI): 25%
AVERAGE DEAD IN % AFTER 5 DAYS ([2]; Chlorantraniliprole alone, PPM AI r6:25 r7:50 r8:100): 0%

CCOC(=O)OC1=C(c2c(C)cc(Cl)cc2C)C(=O)N(C)C12CCN(OC)CC2 [Compound T1.055]
AVERAGE DEAD IN % AFTER 5 DAYS ([1]; T1.055 alone, 50 PPM AI): 10%
AVERAGE DEAD IN % AFTER 5 DAYS ([1]; T1.055 alone, PPM AI r6:100 r7:50 r8:25 r9:12.5): 0%
AVERAGE DEAD IN % AFTER 5 DAYS ([1]; T1.055 alone, PPM AI r6:100 r7:50 r8:25 r9:12.5 r10:6.25): 0%
AVERAGE DEAD IN % AFTER 5 DAYS ([1]; Table 45, T1.055 alone, 50 PPM AI): 0%
AVERAGE DEAD IN % AFTER 5 DAYS ([1]; Table 45, T1.055 alone, 100 PPM AI): 25%
AVERAGE DEAD IN % AFTER 5 DAYS ([1]; Table 45, T1.055 alone, 200 PPM AI): 65%
AVERAGE DEAD IN % AFTER 5 DAYS ([1]; Table 46, T1.055 alone, 50 PPM AI): 25%
AVERAGE DEAD IN % AFTER 5 DAYS ([1]; Table 48, T1.055 alone, 12.5 PPM AI): 0%
AVERAGE DEAD IN % AFTER 5 DAYS ([1]; Table 48, T1.055 alone, 25 PPM AI): 0%
AVERAGE DEAD IN % AFTER 5 DAYS ([1]; Table 48, T1.055 alone, 50 PPM AI): 65%
AVERAGE DEAD IN % AFTER 5 DAYS ([1]; Table 48, T1.055 alone, 100 PPM AI): 65%
AVERAGE DEAD IN % AFTER 5 DAYS ([1]; Table 48, T1.055 alone, 200 PPM AI): 80%
AVERAGE DEAD IN % AFTER 5 DAYS ([2]; T1.055 alone, 100 PPM AI): 0%
AVERAGE DEAD IN % AFTER 5 DAYS ([2]; T1.055 alone, 200 PPM AI): 0%
AVERAGE DEAD IN % AFTER 5 DAYS ([2]; T1.055 alone, PPM AI r6:200 r7:100 r8:50): 0%

CCOC(=O)OC1=C(c2c(C)cc(C)cc2C)C(=O)N(C)C12CCN(OC)CC2 [Compound T1.058]
AVERAGE DEAD IN % AFTER 5 DAYS ([2]; T1.058 alone, 50 PPM AI): 0%
AVERAGE DEAD IN % AFTER 5 DAYS ([2]; T1.058 alone, 100 PPM AI): 55%
AVERAGE DEAD IN % AFTER 5 DAYS ([2]; T1.058 alone, PPM AI r7:50 r8:25 r9:12.5 r10:6.25 r11:3.125 r12-r15:50): 0%

CCOC(=O)OC1=C(c2c(C)cc(Cl)cc2C)C(=O)NC12CCN(OC)CC2 [Compound T1iii.055]
AVERAGE DEAD IN % AFTER 5 DAYS ([1]; T1iii.055 alone, 12.5 PPM AI): 0%
AVERAGE DEAD IN % AFTER 5 DAYS ([1]; T1iii.055 alone, 25 PPM AI): 0%
AVERAGE DEAD IN % AFTER 5 DAYS ([1]; T1iii.055 alone, PPM AI r6:200 r7:100 r8:50 r9:25, 25 ppm active ingredient): 50%
AVERAGE DEAD IN % AFTER 5 DAYS ([1]; T1iii.055 alone, PPM AI r6:200 r7:100 r8:50 r9:25, 200 ppm active ingredient): 80%
AVERAGE DEAD IN % AFTER 5 DAYS ([1]; T1iii.055 alone, PPM AI r7:200 r8:100 r9:50): 0%
AVERAGE DEAD IN % AFTER 5 DAYS ([2]; T1iii.055 alone, 12.5 PPM AI): 0%
AVERAGE DEAD IN % AFTER 5 DAYS ([2]; single active, 1.56 PPM AI, after 5 days): 0%
AVERAGE DEAD IN % AFTER 5 DAYS [2, 3]: 0%
AVERAGE DEAD IN % AFTER 5 DAYS [2, 4]: 0%
AVERAGE DEAD IN % AFTER 5 DAYS [2, 5]: 0%

CNC(=O)c1cc(C#N)cc(C)c1NC(=O)c1cc(Br)nn1-c1ncccc1Cl [Cyantraniliprole, cyantraniliprole]
AVERAGE DEAD IN % AFTER 5 DAYS ([1]; Cyantraniliprole alone, 1.5 PPM AI): 0%

Cc1nn(C)c(/C(OC(=O)C(C)(C)C)=C(\C#N)c2ccc(C(C)(C)C)cc2)c1C [Cyenopyrafen, cyenopyrafen]
AVERAGE DEAD IN % AFTER 5 DAYS ([1]; Cyenopyrafen alone, 200 PPM AI): 0%
AVERAGE DEAD IN % AFTER 5 DAYS ([2]; Cyenopyrafen alone, 1.5 PPM AI): 0%
AVERAGE DEAD IN % AFTER 5 DAYS ([2]; single active, 1.5 PPM AI, after 5 days): 0%
AVERAGE DEAD IN % AFTER 5 DAYS ([2]; single active, 3 PPM AI, after 5 days): 40%
AVERAGE DEAD IN % AFTER 5 DAYS ([2]; single active, 6 PPM AI, after 5 days): 85%
AVERAGE DEAD IN % AFTER 5 DAYS ([2]; single active, 12 PPM AI, after 5 days): 92%

CC1=NNC(=O)N(/N=C/c2cccnc2)C1 [Pymetrozine, pymetrozine]
AVERAGE DEAD IN % AFTER 5 DAYS ([1]; Pymetrozine alone, 0.4 PPM AI): 0%
AVERAGE DEAD IN % AFTER 5 DAYS ([1]; Pymetrozine alone, 0.8 PPM AI): 25%
AVERAGE DEAD IN % AFTER 5 DAYS ([1]; Table 48, Pymetrozine alone, 0.8 PPM AI): 25%
AVERAGE DEAD IN % AFTER 5 DAYS ([2]; Pymetrozine alone, 100 PPM AI): 0%
AVERAGE DEAD IN % AFTER 5 DAYS ([2]; Pymetrozine alone, 200 PPM AI): 0%
AVERAGE DEAD IN % AFTER 5 DAYS [2, 6]: 0%
AVERAGE DEAD IN % AFTER 5 DAYS [2, 7]: 0%
AVERAGE DEAD IN % AFTER 5 DAYS [2, 8]: 0%
AVERAGE DEAD IN % AFTER 5 DAYS [2, 9]: 50%

CC(c1ccc(C(F)(F)F)nc1)S(C)(=O)=NC#N (stereo not drawn) [Sulfoxaflor, sulfoxaflor]
AVERAGE DEAD IN % AFTER 5 DAYS ([1]; Sulfoxaflor alone, 0.2 PPM AI): 20%
AVERAGE DEAD IN % AFTER 5 DAYS ([2]; Sulfoxaflor alone, PPM AI r6:50 r7:100 r8:200 r9:400): 0%
AVERAGE DEAD IN % AFTER 5 DAYS [2, 6]: 0%
AVERAGE DEAD IN % AFTER 5 DAYS [2, 7]: 0%
AVERAGE DEAD IN % AFTER 5 DAYS [2, 8]: 0%
AVERAGE DEAD IN % AFTER 5 DAYS [2, 9]: 35%

CN1COCN(Cc2cnc(Cl)s2)/C1=N\[N+](=O)[O-] [Thiamethoxam, thiamethoxam]
AVERAGE DEAD IN % AFTER 5 DAYS ([1]; Thiamethoxam alone, 0.8 PPM AI): 0%
AVERAGE DEAD IN % AFTER 5 DAYS ([2]; Thiamethoxam alone, PPM AI r6:50 r7:100 r8:200 r9:400 r10:100 r11:200 r12:400): 0%
AVERAGE DEAD IN % AFTER 5 DAYS [2, 10]: 0%
AVERAGE DEAD IN % AFTER 5 DAYS [2, 6]: 0%
AVERAGE DEAD IN % AFTER 5 DAYS [2, 7]: 0%
AVERAGE DEAD IN % AFTER 5 DAYS [2, 8]: 0%
AVERAGE DEAD IN % AFTER 5 DAYS [2, 9]: 37%

abamectin
AVERAGE DEAD IN % AFTER 5 DAYS ([2]; Abamectin alone, PPM AI r6:0.00625 r7:0.0125 r8:0.025 r9:0.05 r10:0.1): 0%

emamectin benzoate
AVERAGE DEAD IN % AFTER 5 DAYS ([1]; Emamectin Benzoate alone, PPM AI r7:12.5 r8:25 r9:50 r10:100 r11:200): 0%
AVERAGE DEAD IN % AFTER 5 DAYS ([1]; Table 46, Emamectin Benzoate alone, 12.5 PPM AI): 0%
AVERAGE DEAD IN % AFTER 5 DAYS ([1]; Table 46, Emamectin Benzoate alone, 25 PPM AI): 0%
AVERAGE DEAD IN % AFTER 5 DAYS ([1]; Table 46, Emamectin Benzoate alone, 50 PPM AI): 0%
AVERAGE DEAD IN % AFTER 5 DAYS ([1]; Table 46, Emamectin Benzoate alone, 100 PPM AI): 0%
AVERAGE DEAD IN % AFTER 5 DAYS ([1]; Table 46, Emamectin Benzoate alone, 200 PPM AI): 0%
AVERAGE DEAD IN % AFTER 5 DAYS ([2]; Emamectin Benzoate alone, 0.05 PPM AI): 0%
AVERAGE DEAD IN % AFTER 5 DAYS ([2]; Emamectin Benzoate alone, PPM AI r7:0.1 r8:0.05 r9:0.025 r10:0.0125 r11:0.00625): 0%

spinetoram
AVERAGE DEAD IN % AFTER 5 DAYS ([1]; Spinetoram alone, 100 PPM AI): 0%
AVERAGE DEAD IN % AFTER 5 DAYS [2, 4]: 0%
AVERAGE DEAD IN % AFTER 5 DAYS [2, 5]: 25%
AVERAGE DEAD IN % AFTER 5 DAYS ([2]; single active, 25 PPM AI, after 5 days): 80%
AVERAGE DEAD IN % AFTER 5 DAYS [2, 10]: 95%
